Results taken from US20120225909A1, “INDAZOLE ANALOG” (priority 2009, published 2012).

Experiments:
Type in all cases: cell-based
[1] = target: T1, human β1-adrenergic receptor (Homo sapiens, UniProt P08588); assay: Test Case 2-C: human β1-adrenergic receptor agonist activity (Cerep cellular functional GPCR, beta 1); settings: concentration 10 μM, isoproterenol = 100%
T1 construct: expressed in transfected cells; host or cells: CHO (Chinese hamster ovary) cells, pcDNA3
Excerpt: Measurement of Human β1-Adrenergic Receptor Agonist Activity

[2] = target: T2, human β2-adrenergic receptor (Homo sapiens, UniProt P07550); assay: Test Case 3-C: human β2-adrenergic receptor agonist activity (Cerep cellular functional GPCR, beta 2); settings: concentration 10 μM, isoproterenol = 100%
T2 construct: expressed in transfected cells; host or cells: CHO (Chinese hamster ovary) cells, pcDNA3
Excerpt: Measurement of Human β2-Adrenergic Receptor Agonist Activity

[3] = target: T3, human α1A-adrenergic receptor (Homo sapiens, UniProt P35348); assay: Test Case 4-B: human α1A-adrenergic receptor agonist activity (Cerep cellular functional GPCR, alpha 1A); design: expressed in transfected cells; settings: concentration 10 μM; for α1 receptor % of Control Agonist Response, Control; Epinephrine: epinephrine = 100%; for α1 receptor % of Control Agonist Response, Control; Norepinephrine: norepinephrine = 100%
T3 sequence (P35348 1-466): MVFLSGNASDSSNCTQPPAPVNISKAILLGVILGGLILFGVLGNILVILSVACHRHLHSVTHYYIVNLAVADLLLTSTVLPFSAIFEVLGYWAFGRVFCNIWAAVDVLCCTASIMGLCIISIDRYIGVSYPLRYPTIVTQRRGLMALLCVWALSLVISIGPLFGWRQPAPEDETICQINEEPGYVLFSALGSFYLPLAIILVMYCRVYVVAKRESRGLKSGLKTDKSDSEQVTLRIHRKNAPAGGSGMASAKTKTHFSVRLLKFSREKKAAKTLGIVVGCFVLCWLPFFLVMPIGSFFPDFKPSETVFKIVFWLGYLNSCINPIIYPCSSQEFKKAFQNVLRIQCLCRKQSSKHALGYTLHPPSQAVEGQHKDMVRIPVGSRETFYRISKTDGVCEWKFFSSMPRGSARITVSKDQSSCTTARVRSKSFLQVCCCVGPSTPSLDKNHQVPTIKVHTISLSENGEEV
Excerpt: Measurement of Human α1A-Adrenergic Receptor Agonist Activity
The human α1A-adrenergic receptor agonist activity] can be measured by […] Functional GPCR·Gs, alpha 1A (Ref. 722-36a) listed on p. 52 of the Cerep 2008 CATALOG IN VITRO PHARMACOLOGY & ADME-TOX.

[4] = target: T4, human β3-adrenergic receptor (Homo sapiens, UniProt P13945); assay: Test Case 1-B: human β3-adrenergic receptor agonist activity (cAMP-Screen, 96-well)
T4 construct: A full-length human β3 gene is obtained from a human genomic library (made by Clontech) using this as the probe; expressed in transfected cells; host or cells: CHO (Chinese hamster ovary) cells, pcDNA3
Method in brief: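 CHO cells stably transfected with full-length human β3 gene, serum-starved 15 min, then exposed to serially diluted compound in Ham's F-12 with 100 mmol/L HEPES and 1 mmol/L IBMX (diluent concentrations) for 30 min. Cells lysed 30 min at 37 °C; cAMP quantified by cAMP-Screen immunoassay.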

T1 sequence (P08588 whole entry): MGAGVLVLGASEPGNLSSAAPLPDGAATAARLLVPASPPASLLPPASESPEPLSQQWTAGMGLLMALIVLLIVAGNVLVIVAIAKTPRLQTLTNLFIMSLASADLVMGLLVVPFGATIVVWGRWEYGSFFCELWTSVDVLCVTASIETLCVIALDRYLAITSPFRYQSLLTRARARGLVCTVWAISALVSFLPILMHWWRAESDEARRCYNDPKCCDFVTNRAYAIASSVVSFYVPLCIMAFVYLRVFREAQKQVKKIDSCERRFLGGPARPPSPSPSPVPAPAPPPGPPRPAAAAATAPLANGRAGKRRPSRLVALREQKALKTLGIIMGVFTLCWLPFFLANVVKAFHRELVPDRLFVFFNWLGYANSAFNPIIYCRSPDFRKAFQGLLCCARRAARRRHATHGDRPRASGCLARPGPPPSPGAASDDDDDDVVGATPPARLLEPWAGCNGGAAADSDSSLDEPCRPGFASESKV
T4 sequence (P13945 whole entry): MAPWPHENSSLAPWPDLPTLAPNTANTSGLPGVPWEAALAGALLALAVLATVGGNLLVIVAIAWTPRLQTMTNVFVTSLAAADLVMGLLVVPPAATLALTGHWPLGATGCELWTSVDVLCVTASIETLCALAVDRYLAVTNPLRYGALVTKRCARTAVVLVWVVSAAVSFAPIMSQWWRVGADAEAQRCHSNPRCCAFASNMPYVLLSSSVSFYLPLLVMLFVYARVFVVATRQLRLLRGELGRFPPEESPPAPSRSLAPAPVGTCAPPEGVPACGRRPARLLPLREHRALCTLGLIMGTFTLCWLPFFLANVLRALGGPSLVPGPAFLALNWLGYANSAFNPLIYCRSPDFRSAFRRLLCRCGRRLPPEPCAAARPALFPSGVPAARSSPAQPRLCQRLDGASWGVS

Compound | β1 receptor % of Control Agonist Response [1] | β2 receptor % of Control Agonist Response [2] | α1 receptor % of Control Agonist Response, Control; Epinephrine [3] | α1 receptor % of Control Agonist Response, Control; Norepinephrine [3] | β2 receptor % of Control Agonist Response ([2]; 10 µM) | α1 receptor % of Control Agonist Response, Control; Epinephrine ([3]; 10 µM) | α1 receptor % of Control Agonist Response, Control; Norepinephrine ([3]; 10 µM) | EC50 ([4]; Test Case 1-B, CHO cells, cAMP) | β3 receptor I.A. ([4]; Test Case 1-B, maximum response of isoproterenol = 100%) | Emax ([4]; 0.5 h, read-out: β3 receptor I.A.)
Nc1ccc(F)c(S(=O)(=O)Nc2cccc([C@@H](O)CNCCOc3ccc4c(Cl)n[nH]c4c3)c2)c1 [ex242, (R)-5-amino-N-(3-(2-(2-(3-chloroindazole-6-yloxy)ethylamino)-1-hydroxyethyl)phenyl)-2-fluorobenzenesulfonamide] | 9.4% | −0.2% | 0.7% | 0.6% |  |  |  |  |  | 
O=S(=O)(Nc1cccc([C@@H](O)CNCCOc2ccc3c(C(F)(F)F)n[nH]c3c2)c1)c1cccnc1 [ex186, (R)-N-(3-(1-hydroxy-2-(2-(3-(trifluoromethyl)-indazol-6-yloxy)ethylamino)ethyl)phenyl)pyridine-3-sulfonamide] | 7.2% | 1.9% | 0.6% | 0.5% |  |  |  |  |  | 
Cc1n[nH]c2cc(OCCNC[C@H](O)c3cccc(NS(=O)(=O)c4cc(F)c(F)cc4F)c3)ccc12 [ex85, (R)-2,4,5-trifluoro-N-(3-(1-hydroxy-2-(2-(3-methylindazol-6-yloxy)ethylamino)ethyl)phenyl) benzenesulfonamide] | 30% | 1.0% | 0.1% | 0.1% |  |  |  |  |  | 
Nc1ccc(F)c(S(=O)(=O)Nc2cccc([C@@H](O)CNCCOc3ccc4c(OC(F)F)n[nH]c4c3)c2)c1 [ex106] | 11% | 2.1% | −0.2% | −0.2% |  |  |  |  |  | 
CCc1n[nH]c2cc(OCCNC[C@H](O)c3cccc(NS(=O)(=O)c4cc(N)ccc4F)c3)ccc12 [ex148, (R)-5-amino-N-(3-(2-(2-(3-ethylindazol-6-yloxy)-ethylamino)-1-hydroxyethyl)phenyl)-2-fluorobenzene-sulfonamide] | 15% | 0.8% | −0.2% | −0.2% |  |  |  |  |  | 
Nc1cccc(S(=O)(=O)Nc2cccc([C@@H](O)CNCCOc3ccc4c(C5CC5)n[nH]c4c3)c2)c1F [ex215, (R)-3-amino-N-(3-(2-(2-(3-cyclopropyl-indazol-6-yloxy)ethyl-amino)-1-hydroxy-ethyl)phenyl)-2-fluorobenzene-sulfonamide] | 23% | 0.5% | 0.1% | 0.1% |  |  |  |  |  | 
O=S(=O)(Nc1cccc([C@@H](O)CNCCOc2ccc3c(Cl)n[nH]c3c2)c1)c1cccnc1 [ex156, (R)-N-(3-(2-(2-(3-chloroindazol-6-yloxy)ethylamino)-1-hydroxyethyl)phenyl)pyridine-3-sulfonamide] | 12% |  |  |  | 3.5% | 3.9% | 3.4% |  |  | 
Cc1n[nH]c2cc(OCCNC[C@H](O)c3cccc(NS(=O)(=O)c4cccnc4F)c3)ccc12 [ex86] | 8.8% | −0.7% | −0.4% | −0.3% |  |  |  | 401 nM | 80% | 
O=S(=O)(Nc1cccc([C@@H](O)CNCCOc2ccc3c(Cl)n[nH]c3c2)c1)c1cn[nH]c1 [ex167, (R)-N-(3-(2-(2-(3-chloroindazol-6-yloxy)ethylamino)-1-hydroxyethyl)phenyl)pyrazole-4-sulfonamide] | 6.4% | 0.3% | 26% | 22% |  |  |  |  |  | 
Cc1n[nH]c2cc(OCCNC[C@H](O)c3cccc(NS(=O)(=O)c4ccc(F)c(N)c4)c3)ccc12 [ex58, (R)-3-amino-4-fluoro-N-(3-(1-hydroxy-2-(2-(3-methylindazol-6-yloxy)ethylamino)ethyl)phenyl) benzenesulfonamide] | 18% | 1.8% | 0.6% | 0.5% |  |  |  |  |  | 
COc1n[nH]c2cc(OCCNC[C@H](O)c3cccc(NS(=O)(=O)c4cn[nH]c4)c3)ccc12 [ex23, (R)-N-( ? -(1-hydroxy-2-(2-(3-methoxyindazol-6-yloxy)ethylamino)ethyl)phenyl)pyrazole-4-sulfonamide] | 2.1% | 0.5% | 32% | 27% |  |  |  |  |  | 
Nc1ccc(F)c(S(=O)(=O)Nc2cccc([C@@H](O)CNCCOc3ccc4c(C(F)(F)F)n[nH]c4c3)c2)c1 [ex185, (R)-5-amimo-2-fluoro-N-(3-(1-hydroxy-2-(2-(3-(trifluoro-methyl)-indazol-6-yloxy)ethylamino)ethyl)phenyl)ben-zenesulfonamide] | 13% | 0.3% | 6.4% | 6% |  |  |  |  |  | 
Cc1n[nH]c2cc(OCCNC[C@H](O)c3cccc(NS(=O)(=O)c4ccc(Cl)c(N)c4)c3)ccc12 [ex7, (R)-3-amino-4-chloro-N-(3-(1-hydroxy-2-(2-(3-methylindazol-6-yloxy)ethylamino)ethyl)phenyl)benzenesulfonamide] | 15% | 3.7% | 25% | 21% |  |  |  |  |  | 
O=S(=O)(Nc1cccc([C@@H](O)CNCCOc2ccc3c(Cl)n[nH]c3c2)c1)c1cccnc1 [ex155, (R)-N-(3-(2-(2-(3-chloroindazol-6-yloxy)ethylamino)-1-hydroxyethyl)phenyl)pyridine-3-sulfonamide] | 12% |  |  |  | 2.2% | 0% | 0% |  |  | 
O=S(=O)(Nc1cc([C@@H](O)CNCCOc2ccc3c(C(F)(F)F)n[nH]c3c2)ccc1Cl)C1CC1 [ex199, (R)-N-(2-chloro-5-(1-hydroxy-2-(2-(3-(tri-fluoromethyl)-indazol-6-yloxy)ethylamino)-ethyl)phenyl)-cyclo-propanesulfonamide] | 8.0% | 8.8% | 17% | 15% |  |  |  |  |  | 
CCc1n[nH]c2cc(OCCNC[C@H](O)c3cccc(NS(=O)(=O)c4ccccc4F)c3)ccc12 [ex128, (R)-N-(3-(2-(2-(3-ethylindazol-6-yloxy)ethylamino)-1-hydroxyethyl)phenyl)-2-fluorobenzene-sulfonamide] | 10% | 0.3% | 16% | 14% |  |  |  |  |  | 
COc1n[nH]c2cc(OCCNC[C@H](O)c3cccc(NS(=O)(=O)c4cccnc4F)c3)ccc12 [ex24, (R)-2-fluoro-N-(3-(1-hydroxy-2-(2-(3-methoxyindazol-6-yloxy)ethylamino)ethyl)phenyl)pyridine-3-sulfonamide] | 6.1% | 1.2% | 5.6% | 4.8% |  |  |  |  |  | 41%
(R)-N-(3-(2-(2-(3- ethylindazol-6- yloxy)ethylamino)-1- hydroxyethyl)phenyl)- ? -methyli ? zole-4- sulfonamide [ex134] | 7.0% | 2.0% | 7.0% | 6.0% |  |  |  |  |  | 
